This passage reports Ki results from ChEMBL document CHEMBL1139712, “Interaction of N1-unsubstituted and N1-benzenesulfonyltryptamines at h5-HT6 receptors” (Bioorg Med Chem Lett, 2006).

For the experiment, the target named is 5-hydroxytryptamine receptor 6 (Homo sapiens, UniProt P50406). As to the kind of experiment: Displacement of [3H]LSD from human 5HT6 receptor expressed in HEK293 cells. It is filed as cell-based.
Chain of 5-hydroxytryptamine receptor 6 (P50406 whole entry): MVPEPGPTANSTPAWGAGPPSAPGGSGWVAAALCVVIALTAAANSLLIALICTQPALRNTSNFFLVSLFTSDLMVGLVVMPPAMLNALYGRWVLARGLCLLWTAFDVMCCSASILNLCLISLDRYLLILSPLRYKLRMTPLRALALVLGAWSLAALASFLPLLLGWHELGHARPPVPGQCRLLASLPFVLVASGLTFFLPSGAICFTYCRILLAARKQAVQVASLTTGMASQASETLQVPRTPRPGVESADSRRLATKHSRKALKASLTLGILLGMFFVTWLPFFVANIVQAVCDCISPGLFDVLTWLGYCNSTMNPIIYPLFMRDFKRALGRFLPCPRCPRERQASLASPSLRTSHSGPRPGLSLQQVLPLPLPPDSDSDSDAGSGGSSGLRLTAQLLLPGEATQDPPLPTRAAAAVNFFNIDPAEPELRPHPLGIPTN
By Ki is commonly meant a dissociation constant, usually derived from enzyme kinetics or from competition with a known ligand. Consider `CCN(CC)CCc1c[nH]c2ccccc12`, for which the affinity, expressed as Ki, was 575 nM. This lies in the sub-micromolar range. Take `COc1cccc2c1c(CCN(C)C)cn2S(=O)(=O)c1ccccc1`: the Ki was found to be 11 nM. As for `COc1ccc2c(CCN(C)C)cn(S(=O)(=O)c3ccccc3)c2c1`, the figure is 15 nM; as for `CN(C)CCc1cn2c3c(cccc13)-c1ccccc1S2(=O)=O`, 4500 nM; as for `CN(C)CCc1c2n(c3ccccc13)S(=O)(=O)c1ccccc1-2`, 143 nM. As for `CCN(CC)CCc1cn(S(=O)(=O)c2ccccc2)c2ccccc12`, the figure is 14 nM. As for `COc1ccc2[nH]cc(CCN(C)Cc3ccccc3)c2c1`, the affinity, expressed as Ki, was 106 nM.
